Data: paper PMC11296140, “Cardenolides in the defensive fluid of adult large milkweed bugs have differential potency on vertebrate and invertebrate predator Na^+/K^+-ATPases” (Royal Society Open Science, 2024)
pIC50: −log10 of the molar value.

How the values were obtained:
[1] = system: zebra finch Na^+/K^+-ATPase; assay: Na+/K+-ATPase inhibition assay, zebra finch brain lysate; assay type: biochemical, Taeniopygia castanotis; settings: for pIC50: zebra finch enzyme, toxicity criteria of Agrawal et al.
Method: Taeniopygia castanotis (zebra finch) brain tissues were obtained from a breeding colony at the University of St Andrews, UK, under Home Office licence 70/8159. Individual brains were dissected and flash-frozen on dry ice before being shipped from St Andrews to the Max Planck Institute for Chemical Ecology, Jena, Germany, where they were kept at −80°C until used in the assays.
(§1) Preparations of Na^+/K^+-ATPases were obtained by homogenization of dissected brains (T. castanotis, zebra finch, and H. membranacea, giant Asian mantid), from commercially obtained enzyme (Sus scrofa domesticus, domestic pig), and expression of ATP1A1 and ATP1B1 subunits of the Na^+/K^+-ATPase of the black-headed grosbeak in insect Sf9 cells (Invitrogen).
(§2) We sliced and weighed 5 mg from three different zebra finch brains and dissected the head capsule of five female giant Asian mantids to obtain the central body with intact optic lobes. Neural tissues were transferred to a 1 ml glass grinder (Wheaton Dounce tissue grinder, 1 ml, no. 357538) and homogenized in 500 μl distilled water. Zebra finch homogenates were transferred to a 50 ml Falcon tube on ice and resuspended with 15 ml resuspension buffer (0.25 M sucrose, 2 mM ethylenediaminetetraacetic acid and 25 mM HEPES/Tris; pH 7.0). Samples were sonicated at 85 W (Fisherbrand Model 120 Sonic Dismembrator, no. 12337338) for three 45 s intervals at 0°C, followed by centrifugation for 30 min at 10 000g (Sigma 3–18K, no. 10290) at 4°C to remove debris. The supernatant was collected and further centrifuged for 60 min at 100 000g at 4°C (Optima Max-XP tabletop ultracentrifuge, no. 393315) to isolate the membrane fraction. The pelleted membranes were washed twice and resuspended in 1 ml Milli-Q water (Milli-Q direct water purification system, Merck, no. C85358) and stored at −20°C. Giant Asian mantid homogenates were frozen to −80°C and then freeze-dried overnight and then resuspended in 1800 μl distilled water. Each sample was divided into aliquots of 600 μl and sonicated twice in an ice water bath (Bandelin Sonorex, no. Z659584) for 5 min. Samples were centrifuged at 3000 r.p.m. for 5 min and used to perform functional assays.
(§3) The inhibitory effects of increasing concentrations of four cardenolides (ouabain, glucopyranosyl frugoside, frugoside and gofruside) on the black-headed grosbeak, zebra finch and giant Asian mantids were determined by photometric measurement of inorganic phosphate released from enzymatic ATP hydrolysis while subtracting the background ATPase activity following Petschenka et al. (see the electronic supplementary material, method S2e). The assessment of the inhibitory impact of glucopyranosyl calotropin was limited to the black-headed grosbeak and zebra finch species. This stemmed from the restricted availability of the compound, which only permitted testing on two predator pumps. The inhibitory effects of the five compounds for the porcine ATPase were taken from Rubiano-Buitrago et al. for comparison. All assays were run in three biological replicates, and the average of two technical replicates of each biological replicate was used for subsequent statistical analyses. Raw data are available in the data repository.
(§4) For cardenolide inhibition, we converted the calibrated absorbance values to the percentage of non-inhibited Na^+/K^+-ATPase activity based on measurements from the control wells. We fitted inhibition curves by nonlinear fitting using a four-parameter logistic curve, with the top and bottom asymptotes set to 100 and 0, respectively, using the nlsLM function of the minipack.lm library in R [47]. From this we calculated the half maximal inhibitory concentration (IC50) values for each biological replicate. […]

[2] = system: black-headed grosbeak Na^+/K^+-ATPase; assay: Na+/K+-ATPase inhibition assay, recombinant black-headed grosbeak enzyme expressed in Sf9 cells; assay type: biochemical, Pheucticus melanocephalus; settings: for times less inhibitory than for pig: black-headed grosbeak vs porcine enzyme, IC50 fold difference; for pIC50: black-headed grosbeak enzyme, toxicity criteria of Agrawal et al.
Description: Pheucticus melanocephalus (black-headed grosbeak) ATPA1 and ATPB1 genes were synthesised (GeneArt; Invitrogen), codon optimised for Spodoptera frugiperda and cloned by GeneArt (Invitrogen) in pFastBac Dual plasmid with ATP1B1 under p10 promoter and ATP1A1 under PPH promoter. Final plasmids were verified by sequencing (accession number 196465).
as §1
Recombinant Na^+/K^+-ATPases were expressed after infection of Sf9 cells with P0 virus stock following the optimized baculovirus expression system described by Scholz and Suppmann. The cells were pelleted by centrifugation, resuspended and sonicated to disrupt membranes and further centrifuged to remove cell debris. Cell membranes were pelleted by ultracentrifugation of the supernatant and finally resuspended in Milli-Q water (electronic supplementary material, method S2). Prior to the Na^+/K^+-ATPase inhibition assay, the black-headed grosbeak protein was verified by SDS–PAGE/Western blotting following the methods of Mohammadi et al. (see the electronic supplementary material, figure S1) and quantified by ELISA (see the electronic supplementary material, method S2d).
as §3
For cardenolide inhibition, we converted the calibrated absorbance values to the percentage of non-inhibited Na^+/K^+-ATPase activity based on measurements from the control wells. We fitted inhibition curves by nonlinear fitting using a four-parameter logistic curve, with the top and bottom asymptotes set to 100 and 0, respectively, using the nlsLM function of the minipack.lm library in R [47]. From this we calculated the half maximal inhibitory concentration (IC50) values for each biological replicate. We compared the log10 IC50 values of individual cardenolides for each Na^+/K^+-ATPase enzyme using a linear model, testing the interaction between predator enzyme and cardenolide, and compared the inhibitory capacity of each compound pairwise using Tukey’s post hoc test. We calculated the fold differences between the IC50 values of individual cardenolides for black-headed grosbeak, zebra finch and giant Asian mantid versus the IC50 values on the porcine enzyme.

[3] = system: giant Asian mantid Na^+/K^+-ATPase; assay: Na+/K+-ATPase inhibition assay, giant Asian mantid neural tissue lysate; assay type: biochemical, Hierodula membranacea; settings: for pIC50: giant Asian mantid enzyme, toxicity criteria of Agrawal et al.; for potency compared with the porcine enzyme (in words): giant Asian mantid vs pig, log10 IC50, Tukey post hoc
Method: Hierodula membranacea were obtained from M&M Wust—Mantids and More (Muhlheim am Main, Germany). Twenty-five individuals were obtained at the L4 stage and reared in individually double-ventilated boxes (19 × 19 × 19 cm). We provided them with greenbottle fly pupae as a food source, twice per week (two pupae during the nymph stages and three when they reached the adult stage). Mantids were sprayed with water every 2 days for hydration. The mantids were kept in an incubator (Snijders Scientific premium, Tilburg, The Netherlands, with an Imago 500 JUMO controller, Fulda, Germany) at 28°C and 70% humidity with an 18 L : 6 D cycle and a temperature of 18°C at night.
as §1, §2, §3
as §4, with “[47].” for “[47]. From this we calculated the half maximal inhibitory concentration (IC50) values for each biological replicate.”

[4] = system: O. fasciatus target site Na^+/K^+-ATPase; settings: cited from earlier work
[5] = zebra finch vs porcine enzyme, IC50 fold difference

Molecule	inhibition of the enzyme (in words) ([1]; sensitive vertebrate enzymes)	times less inhibitory than for pig [1, 5] [times]	times less inhibitory than for pig [2] [times]	times more inhibitory than to pig ([3]; giant Asian mantid vs porcine enzyme, IC50 fold difference, not significant at alpha 0.05) [times]	pIC50 [1]	times more inhibitory than to pig [1, 5] [times]	pIC50 [2]	potency compared with the porcine enzyme (in words) ([2]; black-headed grosbeak vs pig, log10 IC50, Tukey post hoc)	times less inhibitory than for pig ([3]; giant Asian mantid vs porcine enzyme, IC50 fold difference) [times]	potency towards the bug's own target site (in words) [4]	pIC50 [3]	potency compared with the porcine enzyme (in words) [3]	inhibition of the enzyme (in words) ([2]; putatively resistant vertebrate predator)
glucopyranosyl calotropin	effective inhibitor	3.4	15.1										
glucopyranosyl frugoside				2.3	> 6.00	28.3	> 5.00	not significantly different in potency					
C[C@@H]1O[C@@H](O[C@H]2C[C@@H](O)[C@]3(CO)[C@H]4[C@H](O)C[C@]5(C)[C@@H](C6=CC(=O)OC6)CC[C@]5(O)[C@@H]4CC[C@]3(O)C2)[C@H](O)[C@H](O)[C@H]1O [ouabain, reference compound]		6.8	18.9						4.3				
gofruside		12.7	352.5							among the weakest inhibitors	> 6.00	did not differ in inhibitory potential	weakest inhibitor
C[C@H]1OC(O[C@H]2CC[C@@]3(CO)[C@H](CC[C@@H]4[C@@H]3CC[C@]3(C)[C@@H](C5=CC(=O)OC5)CC[C@]43O)C2)[C@H](O)[C@H](O)[C@@H]1O (stereo partly drawn) [frugoside]		2.6	6.8		> 6.00		> 5.00			the most inhibitory	> 6.00	not significantly different in potency	
